The NIST ThermoML archive (doi:10.1021/je300044x)
Numbers after ± are expanded uncertainties.

Columns and labels:
[1] = Molar enthalpy of transition or fusion; conditions: DSC

| Molar enthalpy of transition or fusion ([1]; Crystal 1) [kcal/mol] | Molar enthalpy of transition or fusion ([1]; Crystal 2) [kcal/mol] | Normal melting temperature (Crystal 1, DTA) [°C] | Triple point temperature (Crystal 2, DTA) [K] | Compound | Normal melting temperature (Metastable crystal, visual observation) [°C] |
| --- | --- | --- | --- | --- | --- |
| 6.72 ± 0.194 | 0.39 ± 0.0359 | 188.27 ± 1.1 | 420.36 ± 1.1 | NC(=O)c1cnccn1 [pyrazinecarboxamide] | – |
| – | – | – | – | CCn1cc[n+](C)c1.O=S(=O)([N-]S(=O)(=O)C(F)(F)F)C(F)(F)F | -16.24 ± 2 |
